Measurements taken from patent US20140242093A1, “METHODS AND COMPOSITIONS FOR MODULATING THE INNATE IMMUNE RESPONSE AND/OR MYOGENESIS IN A MAMMALIAN SUBJECT” (FRED HUTCHINSON CANCER RESEARCH CENTER, priority 2011, published 2014).

Key:
Human myoblasts = assay: Expression array of the innate immune response to lentiviral infection versus uninfected cells; type: cell-based
Procedure: RNA was harvested from the lenti-viral infected cells and uninfected control cells at 24 hours after infection.

[1] = test system: cultured human skeletal muscle cells; settings: cited from earlier work

## DUX4-fl: full-length DUX4 protein (SEQ ID NO:110), expressed from lentiviral or pCS2 vectors or in vitro translated
Human myoblasts; gene IFITM3 NM_021034.2, vs lenti-GFP, 24 hours after infection
  IFITM3 expression ratio vs GFP (.fc): −1.95 log2 fold change
Human myoblasts; gene IFITM3 NM_021034.2, vs uninfected, 24 hours after infection
  IFITM3 expression ratio vs NoLenti (.fc): −0.01 log2 fold change
Human myoblasts; gene IL1R1 NM_000877.2, vs lenti-GFP, 24 hours after infection
  IL1R1 expression ratio vs GFP (.fc): −1.34 log2 fold change
Human myoblasts; gene IL1R1 NM_000877.2, vs uninfected, 24 hours after infection
  IL1R1 expression ratio vs NoLenti (.fc): 0.09 log2 fold change
Human myoblasts; gene IL7R NM_002185.2, vs lenti-GFP, 24 hours after infection
  IL7R expression ratio vs GFP (.fc): −2.26 log2 fold change
Human myoblasts; gene IL7R NM_002185.2, vs uninfected, 24 hours after infection
  IL7R expression ratio vs NoLenti (.fc): −0.49 log2 fold change
Human myoblasts; gene IL8 NM_000584.2, vs lenti-GFP, 24 hours after infection
  IL8 expression ratio vs GFP (.fc): −3.88 log2 fold change
Human myoblasts; gene IL8 NM_000584.2, vs uninfected, 24 hours after infection
  IL8 expression ratio vs NoLenti (.fc): −0.13 log2 fold change
Human myoblasts; gene IL18BP NM_173042.2, vs lenti-GFP, 24 hours after infection
  IL18BP expression ratio vs GFP (.fc): −1.25 log2 fold change
Human myoblasts; gene IL18BP NM_173042.2, vs uninfected, 24 hours after infection
  IL18BP expression ratio vs NoLenti (.fc): 0.85 log2 fold change
Human myoblasts; gene IRF7 NM_004029.2, vs lenti-GFP, 24 hours after infection
  IRF7 expression ratio vs GFP (.fc): −1.96 log2 fold change
Human myoblasts; gene IRF7 NM_004029.2, vs uninfected, 24 hours after infection
  IRF7 expression ratio vs NoLenti (.fc): 1.02 log2 fold change
Human myoblasts; gene IRF9 NM_006084.4, vs lenti-GFP, 24 hours after infection
  IRF9 expression ratio vs GFP (.fc): −2.25 log2 fold change
Human myoblasts; gene IRF9 NM_006084.4, vs uninfected, 24 hours after infection
  IRF9 expression ratio vs NoLenti (.fc): 0.20 log2 fold change
Human myoblasts; gene MX1 NM_002462.2, vs lenti-GFP, 24 hours after infection
  MX1 expression ratio vs GFP (.fc): −5.67 log2 fold change
Human myoblasts; gene MX1 NM_002462.2, vs uninfected, 24 hours after infection
  MX1 expression ratio vs NoLenti (.fc): 1.58 log2 fold change
Human myoblasts; gene NFIL3 NM_005384.2, vs lenti-GFP, 24 hours after infection
  NFIL3 expression ratio vs GFP (.fc): −1.82 log2 fold change
Human myoblasts; gene NFIL3 NM_005384.2, vs uninfected, 24 hours after infection
  NFIL3 expression ratio vs NoLenti (.fc): 0.07 log2 fold change
Human myoblasts; gene NFKBIA NM_020529.1, vs lenti-GFP, 24 hours after infection
  NFKBIA expression ratio vs GFP (.fc): −3.00 log2 fold change
Human myoblasts; gene NFKBIA NM_020529.1, vs uninfected, 24 hours after infection
  NFKBIA expression ratio vs NoLenti (.fc): −0.83 log2 fold change
Human myoblasts; gene NFKBIZ NM_001005474.1, vs lenti-GFP, 24 hours after infection
  NFKBIZ expression ratio vs GFP (.fc): −1.57 log2 fold change
Human myoblasts; gene NFKBIZ NM_001005474.1, vs uninfected, 24 hours after infection
  NFKBIZ expression ratio vs NoLenti (.fc): 0.30 log2 fold change
Human myoblasts; gene STAT1 NM_007315.2, vs lenti-GFP, 24 hours after infection
  STAT1 expression ratio vs GFP (.fc): −2.92 log2 fold change
Human myoblasts; gene STAT1 NM_007315.2, vs uninfected, 24 hours after infection
  STAT1 expression ratio vs NoLenti (.fc): 1.08 log2 fold change
Human myoblasts; gene STAT2 NM_005419.2, vs lenti-GFP, 24 hours after infection
  STAT2 expression ratio vs GFP (.fc): −2.69 log2 fold change
Human myoblasts; gene STAT2 NM_005419.2, vs uninfected, 24 hours after infection
  STAT2 expression ratio vs NoLenti (.fc): −0.77 log2 fold change
Human myoblasts; gene TLR3 NM_003265.2, vs lenti-GFP, 24 hours after infection
  TLR3 expression ratio vs GFP (.fc): −1.27 log2 fold change
Human myoblasts; gene TLR3 NM_003265.2, vs uninfected, 24 hours after infection
  TLR3 expression ratio vs NoLenti (.fc): −0.06 log2 fold change
Human myoblasts; gene TNFAIP2 NM_006291.2, vs lenti-GFP, 24 hours after infection
  TNFAIP2 expression ratio vs GFP (.fc): −1.59 log2 fold change
Human myoblasts; gene TNFAIP2 NM_006291.2, vs uninfected, 24 hours after infection
  TNFAIP2 expression ratio vs NoLenti (.fc): −0.42 log2 fold change
Human myoblasts; gene TNFAIP3 NM_006290.2, vs lenti-GFP, 24 hours after infection
  TNFAIP3 expression ratio vs GFP (.fc): −2.90 log2 fold change
Human myoblasts; gene TNFAIP3 NM_006290.2, vs uninfected, 24 hours after infection
  TNFAIP3 expression ratio vs NoLenti (.fc): −0.38 log2 fold change
Human myoblasts; gene TNFAIP6 NM_007115.2, vs lenti-GFP, 24 hours after infection
  TNFAIP6 expression ratio vs GFP (.fc): −2.21 log2 fold change
Human myoblasts; gene TNFAIP6 NM_007115.2, vs uninfected, 24 hours after infection
  TNFAIP6 expression ratio vs NoLenti (.fc): 1.63 log2 fold change
Human myoblasts; gene TNFRSF6B NM_032945.2, vs lenti-GFP, 24 hours after infection
  TNFRSF6B expression ratio vs GFP (.fc): −1.68 log2 fold change
Human myoblasts; gene TNFRSF6B NM_032945.2, vs uninfected, 24 hours after infection
  TNFRSF6B expression ratio vs NoLenti (.fc): −0.29 log2 fold change
Human myoblasts; gene TNFRSF10A NM_003844.2, vs lenti-GFP, 24 hours after infection
  TNFRSF10A expression ratio vs GFP (.fc): −1.13 log2 fold change
Human myoblasts; gene TNFRSF10A NM_003844.2, vs uninfected, 24 hours after infection
  TNFRSF10A expression ratio vs NoLenti (.fc): 0.07 log2 fold change
Human myoblasts; gene TNFRSF14 NM_003820.2, vs lenti-GFP, 24 hours after infection
  TNFRSF14 expression ratio vs GFP (.fc): −2.72 log2 fold change
Human myoblasts; gene TNFRSF14 NM_003820.2, vs uninfected, 24 hours after infection
  TNFRSF14 expression ratio vs NoLenti (.fc): −1.36 log2 fold change
Human myoblasts; gene TNFSF10 NM_003810.2, vs lenti-GFP, 24 hours after infection
  TNFSF10 expression ratio vs GFP (.fc): −1.13 log2 fold change
Human myoblasts; gene TNFSF10 NM_003810.2, vs uninfected, 24 hours after infection
  TNFSF10 expression ratio vs NoLenti (.fc): 0.14 log2 fold change
Human myoblasts; gene TNFSF13B NM_006573.3, vs lenti-GFP, 24 hours after infection
  TNFSF13B expression ratio vs GFP (.fc): −1.76 log2 fold change
Human myoblasts; gene TNFSF13B NM_006573.3, vs uninfected, 24 hours after infection
  TNFSF13B expression ratio vs NoLenti (.fc): 0.12 log2 fold change
Human myoblasts; out of 341
  number of lentivirus-induced genes whose induction is suppressed: 317 genes
Human myoblasts; vs uninfected cells, 24 hours
  number of the 341 lenti-GFP induced genes induced 2-fold or more: 34 genes
[1]
  toxicity of forced over-expression: toxic to cells, inducing apoptotic cell death
